The source of these data is publication PMC5485063 (Chemmedchem, 2017).

The test system of one data set is rat hepatocytes. As to the kind of experiment: High‐throughput metabolic stability assay, freshly harvested rat hepatocytes. The following applies: predicted hepatic metabolic (blood) clearance.
The next data set has as its system Caco2. In words: Bidirectional Caco2 permeability assay, 24‐well format. The conditions noted are these: for P app A→B: Caco2, apical to basolateral; for permeability in either direction (P app A→B and P app B→A): Caco2, incubation period 90 min, possibly precipitation and sticking to plastics.
Data set [1] in a line: logD by reversed‐phase HPLC. The conditions noted are these: pH 7.5.
A further data set has as its system A2780 cells. As to the kind of experiment: In vitro proliferation assay, cultivated A2780 cells. The format is cell-based. The conditions noted are these: Homo sapiens, A2780, read-out: IC50 A2780.
A short description of data set [2]: High‐throughput metabolic stability assay, pooled human liver microsomes. The conditions noted are these: predicted hepatic metabolic (blood) clearance.
Data set [3] in a line: Bidirectional Caco2 permeability assay, 24‐well format. The following applies: human. (Caco-2 cells form a polarised layer with tight junctions and transporters.)
The target of another data set is CDK2 (Homo sapiens, UniProt P24941). As to the kind of experiment: Biochemical in vitro kinase assay CDK2.
For another data set, the target named is CDK9 (Homo sapiens, UniProt P50750). In words: Biochemical in vitro kinase assay CDK9.
The next data set addresses CDK4/CycD3 (Homo sapiens, UniProt P11802). In words: Biochemical assay at ProQinase, CDK4/CycD3.
Another data set deals with CDK6/CycD3 (Homo sapiens, UniProt Q00534). As to the kind of experiment: Biochemical assay at ProQinase, CDK6/CycD3.
The next data set relates to MOLM‐13 cells. As to the kind of experiment: In vitro proliferation assay, MOLM‐13 cells. The format is cell-based. The following applies: Homo sapiens, MOLM-13, read-out: IC50 MOLM‐13.
Another data set deals with MCF7 cells. As to the kind of experiment: In vitro proliferation assay, human MCF7 cells stimulated with 17β‐estradiol. The following applies: MCF7, read-out: IC50 MCF7 E2 stim. The format is cell-based.
Data set [4] addresses T1, wild‐type estrogen receptor 1 (ESR1) (Homo sapiens, UniProt P03372).
T1 sequence (P03372 1-595): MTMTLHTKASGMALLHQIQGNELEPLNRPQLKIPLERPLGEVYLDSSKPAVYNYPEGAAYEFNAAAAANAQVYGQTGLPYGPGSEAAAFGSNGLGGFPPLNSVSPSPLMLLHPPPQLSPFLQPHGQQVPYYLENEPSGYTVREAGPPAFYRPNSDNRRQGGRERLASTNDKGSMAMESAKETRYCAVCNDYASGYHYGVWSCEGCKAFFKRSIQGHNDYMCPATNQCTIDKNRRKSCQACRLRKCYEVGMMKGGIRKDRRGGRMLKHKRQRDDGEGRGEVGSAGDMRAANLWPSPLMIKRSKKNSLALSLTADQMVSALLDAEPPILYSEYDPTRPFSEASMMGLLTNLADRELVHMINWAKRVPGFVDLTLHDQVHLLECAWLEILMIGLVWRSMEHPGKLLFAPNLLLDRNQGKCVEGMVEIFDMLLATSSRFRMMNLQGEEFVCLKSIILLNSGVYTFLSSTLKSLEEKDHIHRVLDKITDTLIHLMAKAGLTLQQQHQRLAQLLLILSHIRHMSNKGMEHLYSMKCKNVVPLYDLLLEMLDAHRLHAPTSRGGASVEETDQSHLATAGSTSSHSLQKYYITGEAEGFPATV
In words: Wild‐type estrogen receptor 1. The format is cell-based.

The conditions of data set [5]: estimated; cited from earlier work.

In brackets after ≈: the same amount, converted by molar mass.

Chain of CDK4/CycD3 (P11802 whole entry): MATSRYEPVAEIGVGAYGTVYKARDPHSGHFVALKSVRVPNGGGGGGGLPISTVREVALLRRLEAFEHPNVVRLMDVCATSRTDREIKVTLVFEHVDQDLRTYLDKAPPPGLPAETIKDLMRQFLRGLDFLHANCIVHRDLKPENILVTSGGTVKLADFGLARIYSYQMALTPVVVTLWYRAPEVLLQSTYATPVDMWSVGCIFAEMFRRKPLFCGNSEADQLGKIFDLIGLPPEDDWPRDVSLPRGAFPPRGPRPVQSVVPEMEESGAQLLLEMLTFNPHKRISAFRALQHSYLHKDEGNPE
Chain of CDK4/CycD3 (P30281 whole entry partner): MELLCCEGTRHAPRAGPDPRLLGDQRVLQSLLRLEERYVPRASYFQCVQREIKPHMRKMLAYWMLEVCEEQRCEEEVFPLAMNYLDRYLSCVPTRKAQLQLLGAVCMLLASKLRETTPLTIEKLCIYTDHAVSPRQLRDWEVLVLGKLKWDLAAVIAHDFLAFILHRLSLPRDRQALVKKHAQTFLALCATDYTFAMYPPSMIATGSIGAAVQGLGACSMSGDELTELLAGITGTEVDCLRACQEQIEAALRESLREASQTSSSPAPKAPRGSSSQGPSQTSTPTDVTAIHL
Chain of CDK6/CycD3 (Q00534 whole entry): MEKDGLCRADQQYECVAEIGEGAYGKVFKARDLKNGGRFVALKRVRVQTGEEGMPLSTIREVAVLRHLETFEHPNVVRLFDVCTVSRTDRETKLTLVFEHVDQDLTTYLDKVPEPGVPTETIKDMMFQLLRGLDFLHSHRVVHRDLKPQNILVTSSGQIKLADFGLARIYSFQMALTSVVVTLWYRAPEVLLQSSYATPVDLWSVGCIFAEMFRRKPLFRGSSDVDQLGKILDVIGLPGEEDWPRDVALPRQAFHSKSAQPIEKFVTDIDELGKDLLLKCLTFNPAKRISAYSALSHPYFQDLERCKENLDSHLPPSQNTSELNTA
Chain of CDK6/CycD3 (P30281 whole entry partner): as the sequence (P30281 whole entry partner) above
Chain of CDK9 (P50750 whole entry): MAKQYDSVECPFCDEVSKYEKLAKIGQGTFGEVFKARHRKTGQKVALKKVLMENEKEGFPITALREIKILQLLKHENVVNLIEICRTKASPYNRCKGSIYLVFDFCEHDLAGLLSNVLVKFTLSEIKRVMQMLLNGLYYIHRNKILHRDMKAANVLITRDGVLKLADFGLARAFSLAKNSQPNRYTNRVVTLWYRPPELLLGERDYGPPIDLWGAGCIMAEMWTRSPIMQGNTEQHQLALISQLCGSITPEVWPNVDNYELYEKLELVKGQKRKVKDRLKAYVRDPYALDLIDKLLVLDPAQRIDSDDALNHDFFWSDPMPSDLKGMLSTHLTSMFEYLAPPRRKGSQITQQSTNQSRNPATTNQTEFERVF
Chain of CDK9 (O60563 whole entry partner): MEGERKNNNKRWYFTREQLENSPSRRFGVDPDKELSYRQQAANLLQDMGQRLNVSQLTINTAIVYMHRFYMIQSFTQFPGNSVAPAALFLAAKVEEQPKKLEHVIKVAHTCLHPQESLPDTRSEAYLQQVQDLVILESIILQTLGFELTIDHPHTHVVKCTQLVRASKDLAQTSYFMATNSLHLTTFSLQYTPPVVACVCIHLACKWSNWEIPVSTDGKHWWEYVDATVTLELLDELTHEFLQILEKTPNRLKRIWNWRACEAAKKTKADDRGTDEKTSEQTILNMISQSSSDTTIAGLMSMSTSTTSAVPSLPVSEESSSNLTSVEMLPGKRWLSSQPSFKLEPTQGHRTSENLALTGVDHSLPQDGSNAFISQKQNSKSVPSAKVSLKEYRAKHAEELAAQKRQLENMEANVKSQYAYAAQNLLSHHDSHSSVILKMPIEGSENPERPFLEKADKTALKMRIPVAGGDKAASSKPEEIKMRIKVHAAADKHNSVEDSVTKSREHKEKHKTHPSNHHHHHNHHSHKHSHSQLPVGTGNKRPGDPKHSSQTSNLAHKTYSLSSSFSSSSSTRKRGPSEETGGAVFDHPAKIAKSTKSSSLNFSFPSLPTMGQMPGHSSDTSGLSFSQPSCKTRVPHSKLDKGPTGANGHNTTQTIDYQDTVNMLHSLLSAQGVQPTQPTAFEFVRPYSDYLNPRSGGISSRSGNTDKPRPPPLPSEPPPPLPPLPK

As for `O=C(NC1CCNCC1)c1n[nH]cc1NC(=O)c1c(Cl)cccc1Cl` [AT7519, reference compound], the “CLb rHep” value in the data set with rat hepatocytes is 1.7 L/h/kg. In the data set on Caco2, the “P app A→B” value is 1.0 nm/s. This compound registered a chromatographic logD in [1] of 1.3. In addition, in the data set on A2780 cells, the 50% inhibitory concentration (IC50) amounted to 0.131 µM. For the same compound, the “CLb hLMs” value in data set [2] was 0.24 L/h/kg.
`N=S1(=O)CCC(NC(=O)c2n[nH]cc2NC(=O)c2c(Cl)cccc2Cl)CC1` (stereo not drawn) [compound 15, 4‐(2,6‐Dichlorobenzamido)‐N‐(1‐imino‐1‐oxo‐1λ^6‐thian‐4‐yl)‐1H‐pyrazole‐3‐carboxamide]: the “CLb rHep” value in the data set on rat hepatocytes is 0.06 L/h/kg. In addition, the “P app A→B” value in the data set on Caco2 was determined as 1.4 nm/s. Besides, the efflux ratio at 90 min in data set [3] (Caco-2) turned out to be 37. Also, the IC50 is 0.522 µM on CDK2, 0.351 µM in the data set on A2780 cells and 0.124 µM against CDK9. Also, the chromatographic logD in data set [1] amounted to 1.6. In data set [2], the “CLb hLMs” value is 0.06 L/h/kg.
With `CC(=O)c1c(C)c2cnc(Nc3ccc(N4CCS(=N)(=O)CC4)cn3)nc2n(C2CCCC2)c1=O` [compound 23, 4‐[6‐({6‐Acetyl‐8‐cyclopentyl‐5‐methyl‐7‐oxo‐7 H,8H‐pyrido[2,3‐d]pyrimidin‐2‐yl}amino)pyridin‐3‐yl]‐1‐imino‐1λ^6‐thiomorpholin‐1‐one], the “CLb rHep” value with rat hepatocytes is 1.1 L/h/kg. For the same compound, the “P app A→B” value in the data set on Caco2 came to 25 nm/s. Also, the efflux ratio at 90 min in data set [3] (Caco-2) was found to be 9.1. Also, the values for the IC50 on CDK4/CycD3, at CDK6/CycD3 and with MOLM‐13 cells were 0.101 µM, 0.24 µM and 0.128 µM, respectively. In data set [1], the chromatographic logD is 2. In addition, the “CLb hLMs” value in data set [2] is 0.24 L/h/kg.
Turning to `CN(C)C(=O)c1cc2cnc(Nc3ccc(N4CCS(=N)(=O)CC4)cn3)nc2n1C1CCCC1` [compound 26, 7‐Cyclopentyl‐2‐{[5‐(1‐imino‐1‐oxo‐1λ^6‐thiomorpholin‐4‐yl)pyridin‐2‐yl]amino}‐N,N ‐dimethyl‐7H‐pyrrolo[2,3‐d]pyrimidine‐6‐carboxamide], in the data set with rat hepatocytes, the “CLb rHep” value is 1.1 L/h/kg. Besides, the “P app A→B” value in the data set on Caco2 turned out to be 22 nm/s. Moreover, the efflux ratio at 90 min in data set [3] (Caco-2) was 11. Besides, the values for the IC50 against CDK4/CycD3, at CDK6/CycD3 and in the data set on MOLM‐13 cells were 0.216 µM, over 1 µM and 1.15 µM, respectively. In [1], this compound had a chromatographic logD of 1.8. In addition, the “CLb hLMs” value in data set [2] was 0.21 L/h/kg.
For the compound `CCCc1nc(C)c2c(=O)[nH]c(-c3cc(S(=O)(=O)N4CCS(=N)(=O)CC4)ccc3OCC)nn12` [compound 29, 4‐(4‐Ethoxy‐3‐{5‐methyl‐4‐oxo‐7‐propyl‐3 H,4H‐imidazo[4,3‐f][1,2,4]triazin‐2‐yl}benzenesulfonyl)‐1‐imino‐1λ^6‐thiomorpholin‐1‐one], the “CLb rHep” value in the data set with rat hepatocytes was 2.1 L/h/kg. The ER with Caco2 (Caco2 efflux ratio, P app B→A/P app A→B) is recorded as 288. In addition, the efflux ratio at 90 min in data set [3] (Caco-2, ER, Caco2 efflux ratio, P app B→A/P app A→B) was over 200. In addition, the chromatographic logD in data set [1] stood at 2. Moreover, in [2], the “CLb hLMs” value was 0.43 L/h/kg.
Consider `C[C@]12CC[C@@H]3c4ccc(O)cc4C[C@@H](CCCCCCCCC[S@](=N)(=O)CCCC(F)(F)C(F)(F)F)[C@H]3[C@@H]1CC[C@@H]2O` [compound 33, 7α‐{9‐[(S)‐(4,4,5,5,5‐Pentafluoropentyl)sulfonimidoyl]nonyl}estra‐1,3,5(10)‐triene‐3,17β‐diol], for which, in the data set on rat hepatocytes, the “CLb rHep” value is 3.5 L/h/kg. Also, the “permeability in either direction (P app A→B and P app B→A)” value with Caco2 is on record as “no permeability in either direction”. In addition, in data set [1], the chromatographic logD is 3.8. Further, the IC50 with MCF7 cells came out at 0.0071 µM; in data set [4], 0.0018 µM. Also, the “CLb hLMs” value in data set [2] was 1.1 L/h/kg.
Turning to `C[C@]12CC[C@@H]3c4ccc(O)cc4C[C@@H](CCCCCCCCC[S+]([O-])CCCC(F)(F)C(F)(F)F)[C@H]3[C@@H]1CC[C@@H]2O` (stereo partly drawn) [fulvestrant, reference compound], the “CLb rHep” value in the data set on rat hepatocytes was 3.5 L/h/kg. Further, the “permeability in either direction (P app A→B and P app B→A)” value in the data set on Caco2 was “no permeability in either direction”. This compound also showed a chromatographic logD in [1] of 4.2. The IC50 in the data set with MCF7 cells turned out to be 0.0092 µM. Besides, in data set [5], the aqueous solubility is about 0.01 µg/mL (≈ 0.0165 µM). Besides, the “CLb hLMs” value in [2] was 1.2 L/h/kg.
Consider `CC(=O)c1c(C)c2cnc(Nc3ccc(N4CCNCC4)cn3)nc2n(C2CCCC2)c1=O` [palbociclib, reference compound], for which the “CLb rHep” value in the data set on rat hepatocytes is 1.3 L/h/kg. The “P app A→B” value in the data set on Caco2 is 70 nm/s. In data set [1], this compound returned a chromatographic logD of 1.9. In addition, the IC50 in the data set on MOLM‐13 cells stood at 0.041 µM. Besides, in data set [2], the “CLb hLMs” value is 0.45 L/h/kg.
Take `CN(C)C(=O)c1cc2cnc(Nc3ccc(N4CCNCC4)cn3)nc2n1C1CCCC1` [ribociclib, reference compound]: the “CLb rHep” value in the data set on rat hepatocytes is 2.3 L/h/kg. For the same compound, the “P app A→B” value with Caco2 was 135 nm/s. The compound also displayed a chromatographic logD in data set [1] of 1.7. Further, the IC50 in the data set on MOLM‐13 cells turned out to be 0.089 µM. Moreover, the “CLb hLMs” value in [2] is 0.52 L/h/kg.
As to `CCCc1nc(C)c2c(=O)[nH]c(-c3cc(S(=O)(=O)N4CCN(CC)CC4)ccc3OCC)nn12` [vardenafil, reference compound], in the data set on rat hepatocytes, the “CLb rHep” value is 3.0 L/h/kg. For the same compound, the “P app A→B” value in the data set on Caco2 is 206 nm/s. Moreover, the chromatographic logD in data set [1] amounted to 2.6. Also, in data set [2], the “CLb hLMs” value is 1.1 L/h/kg.

The term chromatographic logD denotes a lipophilicity value derived from retention on a column. What is called IC50 is the midpoint of a concentration-inhibition curve. One may read the efflux ratio as a quotient of directional permeabilities that is used to spot active efflux. One may read the aqueous solubility as the dissolved amount per volume that the medium holds.
